Laboratory results: PMC12021657, “Rapid traversal of vast chemical space using machine learning-guided docking screens” (Nature Computational Science, 2025)

What follows are molecules tested against T1, Human D2R (Homo sapiens, UniProt P14416) (assay: Human D2R competition radioligand binding ([3H]-spiperone, CHO-D2R #S20 membranes)). Settings: mean ± SEM from three independent experiments.
T1 construct: expressed in transfected cells
Procedure: (§1) Screening compounds (Supplementary Tables 10 and 12) were purchased from Enamine (compound purity >90%, which was confirmed by liquid chromatography−mass spectrometry and ^1H NMR spectroscopy for identified ligands; Supplementary Figs. 19–30). Human D2R competition binding experiments were carried out in polypropylene 96-well plates. Each well contained 20 µg of membranes from a CHO-D2R #S20 cell line (protein concentration of 4,322 µg ml^−1), 1.5 nM [^3H]-spiperone (54.3 Ci mmol^−1, 1 mCi ml^−1, PerkinElmer NET1187250UC) and the compound studied. Non-specific binding was determined in the presence of 10 µM sulpiride (Sigma Aldrich S8010). The reaction mixture (250 µl per well) was incubated at 25 °C for 120 min, after which 200 µl was transferred to a GF/C 96-well plate (Millipore) pretreated with 0.5% PEI and treated with binding buffer (50 mM Tris-HCl, 1 mM EDTA, 5 mM MgCl2, 5 mM KCl, 120 mM NaCl, pH 7.4). The reaction mixture was filtered and washed 4 times with 250 µl wash buffer (50 mM Tris-HCl, 0.9% NaCl, pH 7.4) before the addition of 30 μl Universol. The final measurement was performed in a microplate beta scintillation counter (Microbeta Trilux, PerkinElmer). Human A2AR competition binding experiments were carried out in a multiscreen GF/C 96-well plate (Millipore) pretreated with binding buffer (Tris-HCl 50 mM, EDTA 1 mM, MgCl2 10 mM, 2 U ml^−1 adenosine deaminase, pH 7.4). Each well was incubated with 5 μg of membranes from the HeLa-A2A cell line and prepared in our laboratory (lot A003/14-04-2019, protein concentration 2,058 μg ml^−1), 1 nM [^3H]-ZM241385 (50 Ci mmol^−1, 1 mCi ml^−1, ARC-ITISA 0884), and the compounds studied and standards. Non-specific binding was determined in the presence of NECA 50 μM (Sigma E2387). The reaction mixture (total volume of 200 μl per well) was incubated at 25 °C for 30 min, then filtered and washed 4 times with 250 μl wash buffer (Tris-HCl 50 mM, EDTA 1 mM, MgCl2 10 mM, pH 7.4), and measured in a microplate beta scintillation counter (Microbeta Trilux, PerkinElmer). Unless stated otherwise, three independent experiments were carried out to calculate Ki values.

T1 sequence (P14416 whole entry): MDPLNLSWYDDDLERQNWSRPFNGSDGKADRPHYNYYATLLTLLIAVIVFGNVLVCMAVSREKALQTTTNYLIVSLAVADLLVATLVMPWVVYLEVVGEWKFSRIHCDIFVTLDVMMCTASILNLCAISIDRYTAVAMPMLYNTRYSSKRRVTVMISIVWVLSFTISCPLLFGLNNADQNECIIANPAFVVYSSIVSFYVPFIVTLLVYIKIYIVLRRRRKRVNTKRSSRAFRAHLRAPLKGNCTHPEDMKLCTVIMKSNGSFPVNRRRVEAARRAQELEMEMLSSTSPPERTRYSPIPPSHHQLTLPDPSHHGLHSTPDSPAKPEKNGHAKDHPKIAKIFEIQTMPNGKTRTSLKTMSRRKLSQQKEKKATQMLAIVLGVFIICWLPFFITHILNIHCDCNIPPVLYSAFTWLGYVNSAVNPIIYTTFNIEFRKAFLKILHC

Compound | Ki
NC(=NCCc1c[nH]c2c(Cl)cc(Cl)cc12)Nc1ncccn1 [Compound 5, c1cnc(nc1)NC(=NCCc2c[nH]c3c2cc(cc3Cl)Cl)N] | 14 µM

Each molecule was assayed against T2, Human A2AR (Homo sapiens, UniProt P29274) (assay: Human A2AR competition radioligand binding ([3H]-ZM241385, HeLa-A2A membranes)). Settings: 20 µM compound, mean ± SEM of two technical replicates.
T2 construct: expressed in transfected cells; host or cells: HeLa-A2A cell line (membranes prepared in house, lot A003/14-04-2019)
Procedure: as §1

T2 sequence (P29274 whole entry): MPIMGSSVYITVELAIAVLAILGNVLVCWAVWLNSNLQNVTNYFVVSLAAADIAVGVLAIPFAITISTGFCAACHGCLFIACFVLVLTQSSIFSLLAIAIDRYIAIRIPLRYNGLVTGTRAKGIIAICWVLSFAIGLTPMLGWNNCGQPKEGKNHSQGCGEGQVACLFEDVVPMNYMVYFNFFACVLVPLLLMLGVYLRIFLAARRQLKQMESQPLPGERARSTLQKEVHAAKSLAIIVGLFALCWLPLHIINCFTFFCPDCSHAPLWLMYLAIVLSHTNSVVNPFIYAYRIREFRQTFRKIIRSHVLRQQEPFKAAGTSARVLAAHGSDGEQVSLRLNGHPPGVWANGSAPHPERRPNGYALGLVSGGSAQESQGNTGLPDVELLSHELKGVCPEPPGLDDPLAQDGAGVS

Compound | A2AR radioligand displacement at 20 µM (%)
O=C(NCc1nccc(=O)[nH]1)C1CCCN1Cc1ccccc1 (stereo not drawn) [Z4219981720, c1ccc(cc1)CN2CCCC2C(=O)NCc3[nH]c(=O)ccn3] | 6±4%
O=c1[nH]c(NCC2CCN(CCc3ccccc3)C2)nc2ccsc12 (stereo not drawn) [Z5332306614, c1ccc(cc1)CCN2CCC(C2)CNc3[nH]c(=O)c4c(n3)ccs4] | 8±1%
CCc1ccnc(NCC2CN(Cc3ccccc3)CC2C)n1 (stereo not drawn) [Z5471612810, CCc1ccnc(n1)NCC2CN(CC2C)Cc3ccccc3] | 2±1%
Cc1nc(NC(=O)C(N)Cc2cccc(Br)n2)[nH]c1C (stereo not drawn) [Z6382061841, Cc1c(nc([nH]1)NC(=O)C(Cc2cccc(n2)Br)N)C] | 2±2%
NC(Cc1ccccc1Cl)C(=O)N1CC(C(=O)Nc2nccs2)C1 (stereo not drawn) [Z6437654059, c1ccc(c(c1)CC(C(=O)N2CC(C2)C(=O)Nc3nccs3)N)Cl] | 3±2%
O=C(CN1CCC1Cc1ccccc1)Nc1ncc[nH]1 (stereo not drawn) [Z6743522026, c1ccc(cc1)CC2CCN2CC(=O)Nc3[nH]ccn3] | 5±3%
CC(Cc1c[nH]c2ncccc12)NCc1nn(C)c2ccccc12 (stereo not drawn) [Z7272600070, CC(Cc1c[nH]c2c1cccn2)NCc3c4ccccc4n(n3)C] | 20±1%
COc1cc(CNC(C)Cc2c[nH]c3ncccc23)ncc1C (stereo not drawn) [Z7326877935, Cc1cnc(cc1OC)CNC(C)Cc2c[nH]c3c2cccn3] | 13±2%
Cc1ccc(NCCNC(=O)C2Cc3c(C)cccc3CN2)nc1 (stereo not drawn) [Z8854579335, Cc1ccc(nc1)NCCNC(=O)C2Cc3c(cccc3CN2)C] | 6±2%
COc1ccc(Cl)c(CCN=C(N)Nc2ncccn2)c1 [Z8854579336, COc1ccc(c(c1)CCN=C(N)Nc2ncccn2)Cl] | 39±1%
NC(=NCCc1ccccc1Cl)Nc1ncccn1 [Z8854579337, c1ccc(c(c1)CCN=C(N)Nc2ncccn2)Cl] | 29±4%
N[C@@H](CC(=O)Nc1nc2c(Br)cc(F)cc2[nH]1)Cc1ccccc1 [Z8854579338, c1ccc(cc1)C[C@H](CC(=O)Nc2[nH]c3cc(cc(c3n2)Br)F)N] | 49±2%
NC(CC(=O)Nc1cc2ncccn2n1)C(=O)OCc1ccccc1 (stereo not drawn) [Z8854579341, c1ccc(cc1)COC(=O)C(CC(=O)Nc2cc3ncccn3n2)N] | 2±2%
N[C@H]1c2ccccc2C[C@H]1C(=O)Nc1ccn(-c2ccccn2)n1 [Z8854579342, c1ccc2c(c1)C[C@H]([C@H]2N)C(=O)Nc3ccn(n3)c4ccccn4] | 30±2%
NC(=NCCOc1ccc(F)cc1)Nc1ncccn1 [Z8854579344, c1cnc(nc1)NC(=NCCOc2ccc(cc2)F)N] | 17±1%
NC(=NCc1cc2ccccc2o1)Nc1ncccn1 [Z8854579345, c1ccc2c(c1)cc(o2)CN=C(N)Nc3ncccn3] | 32±2%
NC(=NCCOc1cccc(C(F)(F)F)c1)Nc1ncccn1 [Z8854579346, c1cc(cc(c1)OCCN=C(N)Nc2ncccn2)C(F)(F)F] | 23±1%
NC(=NCc1ccsc1-n1cccc1)Nc1ncccn1 [Z8854579347, c1ccn(c1)c2c(ccs2)CN=C(N)Nc3ncccn3] | 32±4%
Cc1ccc(C[C@H](N)CC(=O)Nc2nc3c(C)cccc3[nH]2)cc1 [Z8854579350, Cc1ccc(cc1)C[C@@H](CC(=O)Nc2[nH]c3cccc(c3n2)C)N] | 30±3%

Compound | A2AR radioligand displacement at 20 µM (%)
Cc1cccc2[nH]c(NC(=O)C(N)Cc3csc4ccccc34)nc12 (stereo not drawn) [Z8854579351, Cc1cccc2c1nc([nH]2)NC(=O)C(Cc3csc4c3cccc4)N] | 31±1%
Cc1cccc2[nH]c(NC(=O)C(N)Cc3cccc(Cl)c3)nc12 (stereo not drawn) [Z8854579352, Cc1cccc2c1nc([nH]2)NC(=O)C(Cc3cccc(c3)Cl)N] | 57±4%
NC(=NCCc1ccccc1OC(F)(F)F)Nc1ncccn1 [Z8854579353, c1ccc(c(c1)CCN=C(N)Nc2ncccn2)OC(F)(F)F] | 22±5%
Cc1cccc2c1CC(C(=O)NCCNc1ncccn1)NC2 (stereo not drawn) [Z8854579354, Cc1cccc2c1CC(NC2)C(=O)NCCNc3ncccn3] | 1±1%
NC(=NCCc1cccc(Br)c1)Nc1ncccn1 [Z8854579355, c1cc(cc(c1)Br)CCN=C(N)Nc2ncccn2] | 28±1%
CSc1ccc(CCN=C(N)Nc2ncccn2)cc1 [Z8854579356, CSc1ccc(cc1)CCN=C(N)Nc2ncccn2] | 15±1%
NC(=NCCc1c(F)cccc1Cl)Nc1ncccn1 [Z8854579358, c1cc(c(c(c1)Cl)CCN=C(N)Nc2ncccn2)F] | 16±4%
NC(=NCCOc1ccc(F)c(Cl)c1)Nc1ncccn1 [Z8854579360, c1cnc(nc1)NC(=NCCOc2ccc(c(c2)Cl)F)N] | 26±3%
COc1ccc(CCN=C(N)Nc2ncccn2)c(F)c1 [Z8854579362, COc1ccc(c(c1)F)CCN=C(N)Nc2ncccn2] | 12±4%
NC(=NCCc1c(F)cccc1Br)Nc1ncccn1 [Z8854579363, c1cc(c(c(c1)Br)CCN=C(N)Nc2ncccn2)F] | 20±1%
NC(=NCCCc1ccc(F)cc1)Nc1ncccn1 [Z8854579364, c1cnc(nc1)NC(=NCCCc2ccc(cc2)F)N] | 17±4%
Cc1ccc(F)c(CCN=C(N)Nc2ncccn2)c1 [Z8854579366, Cc1ccc(c(c1)CCN=C(N)Nc2ncccn2)F] | 15±1%
Cn1ccc(NC(=O)CNC(=O)C2Cc3c(Br)cccc3CN2)n1 (stereo not drawn) [Z8854579367, Cn1ccc(n1)NC(=O)CNC(=O)C2Cc3c(cccc3Br)CN2] | 10±2%
NC(=NCCc1ccc(F)cc1F)Nc1ncccn1 [Z8854579368, c1cnc(nc1)NC(=NCCc2ccc(cc2F)F)N] | 14±1%
NC(=NCCOc1ccc(F)cc1F)Nc1ncccn1 [Z8854579369, c1cnc(nc1)NC(=NCCOc2ccc(cc2F)F)N] | 2±3%
NC(=NCCc1ccc(F)cc1)Nc1ncccn1 [Z8854579370, c1cnc(nc1)NC(=NCCc2ccc(cc2)F)N] | 11±1%
Cc1ccncc1CNC(=O)C(N)Cc1c[nH]c2ncccc12 (stereo not drawn) [Z8857701713, Cc1ccncc1CNC(=O)C(Cc2c[nH]c3c2cccn3)N] | 3±2%
NC(=NCc1c(Cl)cccc1Cl)Nc1ncccn1 [Z8861112994, c1cc(c(c(c1)Cl)CN=C(N)Nc2ncccn2)Cl] | 32±2%

Same assay, conditions: fit to concentration-response curve from two technical replicates, compound 5 three independent experiments (mean ± SEM), read-out: Ki (A2AR)

Compound | Ki
NC(=NCCc1c[nH]c2c(Cl)cc(Cl)cc12)Nc1ncccn1 [Compound 5, c1cnc(nc1)NC(=NCCc2c[nH]c3c2cc(cc3Cl)Cl)N] | ~20 µM
